# Values of other authors in patent US8735408B2, “Solid forms of 3-(4-(aminomethyl)-1-(5-methyl-7H-pyrrolo[2,3-d]pyrimidin-4-yl)piperidine-4-carboxamido)phenyl dimethylcarbamate” (Lexicon Pharmaceuticals, Inc., priority 2010, dated 2014).
# Settings: models of ophthalmic disease; see US-2009-0264450-A1
structure (smiles),measurement,value
"Cc1c[nH]c2ncnc(N3CCC(CN)(C(=O)Nc4cccc(OC(=O)N(C)C)c4)CC3)c12 [3-(4-(aminomethyl)-1-(5-methyl-7H-pyrrolo[2,3-d]pyrimidin-4-yl)piperidine-4-carboxamido)phenyl dimethylcarbamate]",effect on intraocular pressure,decrease intraocular pressure
